Reference: US12673052B2, “Combinations for the treatment of cancer” (Exelixis, Inc., priority 2020, dated 2026)
Like-named read-outs stand apart in the source and are kept apart here.

Columns and labels:
MDA-MB-231 = assay: Tumor growth inhibition in xenograft model; type: in vivo, NSG mice
Experimental: Three human tumor cell lines, NCI-H441, MDA-MB-231, and SNU-5, were selected for use in tumor xenograft studies using athymic nude, NSG and CB.17 SCID mice, respectively. Pharmacodynamic modulation of MET phosphorylation was also measured in the NCI-H441 and SNU-5 xenografts. Tumor-bearing mice were orally dosed once-daily for 14 days (qd×14), and the tumors were resected and processed for MET phosphorylation analysis by Western blot. […]

mammalian cell = assay: In vitro mammalian cell genotoxicity bioassay; type: cell-based
Experimental: The nonclinical toxicity of Compound 1 was characterized in dose range-finding 7-day and definitive 28-day repeat-dose studies in rats and dogs, and in in vitro bacterial and mammalian genotoxicity bioassays. Compound 1 was also evaluated in definitive neurobehavioral, respiratory and cardiovascular safety pharmacology studies.
Compound 1 was negative in in vitro bacterial and mammalian cell genotoxicity bioassays.

[1] = Phase 1 first-in-human Study Compound 1-001 (NCT03845166): plasma pharmacokinetics; type: in vivo; conditions: for Cmax / AUC(0-t) / Tmax / half-life / Tmax at 28 days / half-life at 28 days: human, plasma, oral; for AUC(0-t): read-out: AUC0-24
Text: The maximum tolerated dose (MTD) and/or recommended dose (RD) of Compound 1 single-agent therapy and ICI combination therapy will be determined in a Dose-Escalation Stage. The preliminary efficacy of Compound 1 as single agent and as ICI combination therapy will be determined in a Cohort-Expansion Stage with tumor-specific expansion cohorts. As of 14 Dec. 2020, dose escalation of Compound 1 as single agent and in combination therapy with atezolizumab was ongoing: 19 subjects were enrolled in single agent cohorts across six dose levels (PIB: 10, 20 mg; Tablet: 20, 40, 80, 140 mg); three subjects were enrolled in combination therapy with atezolizumab at one dose level (Compound 1 40 mg po qd plus atezolizumab 1200 mg IV q3w). As of 14 Dec. […] The majority of reported adverse events (AEs) were of low-grade severity (Grade 1-2) with five subjects having experienced treatment-related Grade 3 events.
As of 14 Dec. 2020, preliminary Compound 1 clinical PK data are available from 17 subjects in the single agent Dose-Escalation Stage of Study Compound 1-001 (n=3 for 10 mg liquid formulation [PIB]; n=4 for 20 mg liquid formulation [PIB]; n=3 for 20 mg tablet; n =4 for 40 mg tablet; n=3 for 80 mg tablet). In addition, PK of Compound 1 was evaluated when given in the combination with atezolizumab. PK data from a total of 3 subjects enrolled in the Combination Cohort 1 (40 mg Compound 1 qd+1200 mg atezolizumab q3w) are available. A summary of all available PK parameters estimated by non-compartmental approach using individual plasma concentration-time data from a single agent Compound 1 is presented in Table 1. Mean (standard deviation [SD]) plasma Compound 1 concentration-time profiles following a single agent PIB or tablet formulation are illustrated in FIG. 8.
• Blood samples to assess the PK of Compound 1 and its potential metabolites will be obtained during the DLT Evaluation Period: • On the date of first dose of study treatment (prior to study treatment administration) at hourly intervals up to 8 hours postdose on W1D1 and W4D7 (Day 28) • Predose on W1D2 • Predose and 2 hours postdose on W2D1, W3D1, and W4D1 • During the Washout Period on W5D1, W5D2, W5D3, and W5D5 (W5D2, W5D3, and W5D5 PK samples are not required for biomarker cohorts.) • Blood samples for PK analysis will be obtained after the DLT Evaluation and Washout Periods • Predose and 2 hours postdose on W6D1, W9D1, and W13D1.

CYP2C8 = assay: Cytochrome P450 induction (mRNA levels) in fresh primary human hepatocytes; type: in vitro ADME
[2] = 10 mg PIB, Steady-State (Day 28), mean ± SD
[3] = 20 mg PIB, Steady-State (Day 28), N = 3, mean ± SD
[4] = 20 mg Tablet, Steady-State (Day 28), mean ± SD
[5] = 40 mg Tablet, Steady-State (Day 28), mean ± SD
[6] = 80 mg Tablet, Steady-State (Day 28), mean ± SD
[7] = 10 mg, 10 mg PIB, First Dose (Day 1), mean ± SD
[8] = 10 mg, 10 mg PIB, Steady-State (Day 28), mean ± SD
[9] = 20 mg, 20 mg PIB, First Dose (Day 1), mean ± SD
[10] = 20 mg, 20 mg PIB, Steady-State (Day 28), N = 3, mean ± SD
[11] = 20 mg, 20 mg Tablet, First Dose (Day 1), mean ± SD
[12] = 20 mg, 20 mg Tablet, Steady-State (Day 28), mean ± SD
[13] = 40 mg, 40 mg Tablet, First Dose (Day 1), mean ± SD
[14] = 40 mg, 40 mg Tablet, Steady-State (Day 28), mean ± SD
[15] = 80 mg, 80 mg Tablet, First Dose (Day 1), mean ± SD
[16] = 80 mg, 80 mg Tablet, Steady-State (Day 28), mean ± SD

CNC(=O)c1cc2c(Oc3ccc(NC(=O)C4(C(=O)Nc5ccc(F)cc5)CC4)cc3)ccnc2cc1OC [Compound 1, 1-N′-(4-Fluorophenvl)-1-N-[4-[7-methoxy-6-(methylcarbamovl)quinolin-4-yl]oxyphenyl]cyclopropane-1,1-dicarboxamide]
TGI (%) (MDA-MB-231; 3 mg/kg qd × 14 oral, p-value 0.0001): 73.6% | TGI (%) (MDA-MB-231; 10 mg/kg qd × 14 oral, p-value <0.0001): 78.6% | genotoxicity (mammalian cell): negative | AR AUC0-24 (accumulation ratio) [1, 2]: 1.92 ± 0.593 | AR Cmax (accumulation ratio) [1, 2]: 2.76 ± 0.609 | AR AUC0-24 (accumulation ratio) [1, 3]: 3.61 ± 4.09 | AR Cmax (accumulation ratio) [1, 3]: 4.09 ± 5.40 | AR AUC0-24 (accumulation ratio) [1, 4]: 1.33 ± 0.136 | AR Cmax (accumulation ratio) [1, 4]: 1.30 ± 0.374 | mean exposure of Compound 1 (Cmax and AUC0-24) in combination with atezolizumab relative to single agent ([1]; 40 mg Compound 1 qd + 1200 mg atezolizumab q3w, steady-state, lower in combination): approximately 2 fold | AR AUC0-24 (accumulation ratio) [1, 5]: 1.46 ± 0.286 | AR Cmax (accumulation ratio) [1, 5]: 1.27 ± 0.0979 | AR AUC0-24 (accumulation ratio) [1, 6]: 1.88 ± 0.947 | AR Cmax (accumulation ratio) [1, 6]: 1.67 ± 0.636 | accumulation at steady state ([1]; 20-mg tablet): < 2 fold | increase of mean exposure (AUC0-24) with dose ([1]; PIB 10 mg to 20 mg, Day 1): approximately dose proportionally | Mean PK exposure (Cmax and AUC0-24) of 20 mg tablet relative to 20 mg PIB ([1]; first dose Day 1, tablet higher): approximately 3.7 fold | increase of exposure with dose ([1]; first dose, 20 to 80 mg tablets, single agent): approximately dose proportional | Cmax [1, 7]: 35.7 ± 10.8 ng/mL | AUC(0-t) [1, 7]: 510 ± 193 ng·h/mL | Tmax ([1]; 10 mg, 10 mg PIB, First Dose (Day 1), median (min, max), read-out: Tmax): 1 h | Cmax [1, 8]: 95.2 ± 17.8 ng/mL | AUC(0-t) [1, 8]: 971 ± 398 ng·h/mL | half-life ([1]; 10 mg, 10 mg PIB, Steady-State (Day 28), mean ± SD, read-out: t1/2 (terminal phase half-life) (converted)): 1190 ± 78 min | Tmax at 28 days ([1]; 10 mg, 10 mg PIB, Steady-State (Day 28), median (min, max)): 2 h | Cmax [1, 9]: 91.9 ± 13.4 ng/mL | AUC(0-t) [1, 9]: 1000 ± 338 ng·h/mL | Tmax ([1]; 20 mg, 20 mg PIB, First Dose (Day 1), median (min, max), read-out: Tmax): 2 h | Cmax [1, 10]: 330 ± 409 ng/mL | AUC(0-t) [1, 10]: 3270 ± 4010 ng·h/mL | half-life ([1]; 20 mg, 20 mg PIB, Steady-State (Day 28), N = 3, mean ± SD, read-out: t1/2 (terminal phase half-life) (converted)): 1260 ± 342 min | Tmax at 28 days ([1]; 20 mg, 20 mg PIB, Steady-State (Day 28), N = 3, median (min, max)): 2 h | Cmax [1, 11]: 342 ± 225 ng/mL | AUC(0-t) [1, 11]: 3680 ± 1550 ng·h/mL | Tmax ([1]; 20 mg, 20 mg Tablet, First Dose (Day 1), median (min, max), read-out: Tmax): 6 h | Cmax [1, 12]: 422 ± 241 ng/mL | AUC(0-t) [1, 12]: 5030 ± 2560 ng·h/mL | half-life ([1]; 20 mg, 20 mg Tablet, Steady-State (Day 28), mean ± SD, read-out: t1/2 (terminal phase half-life) (converted)): 1670 ± 284 min | Tmax ([1]; 20 mg, 20 mg Tablet, Steady-State (Day 28), median (min, max), read-out: Tmax): 1 h | half-life at 28 days ([1]; 20 mg, PIB 10 and 20 mg, steady-state Day 28, read-out: mean terminal half-life (t1/2) (converted)): ~1200 min | Cmax [1, 13]: 521 ± 202 ng/mL | AUC(0-t) [1, 13]: 6350 ± 1540 ng·h/mL | Tmax ([1]; 40 mg, 40 mg Tablet, First Dose (Day 1), median (min, max), read-out: Tmax): 5 h | Cmax [1, 14]: 656 ± 242 ng/mL | AUC(0-t) [1, 14]: 8190 ± 1560 ng·h/mL | half-life ([1]; 40 mg, 40 mg Tablet, Steady-State (Day 28), mean ± SD, read-out: t1/2 (terminal phase half-life) (converted)): 1450 ± 301 min | Tmax ([1]; 40 mg, 40 mg Tablet, Steady-State (Day 28), median (min, max), read-out: Tmax): 3 h | Cmax [1, 15]: 935 ± 348 ng/mL | AUC(0-t) [1, 15]: 11000 ± 6290 ng·h/mL | Tmax ([1]; 80 mg, 80 mg Tablet, First Dose (Day 1), median (min, max), read-out: Tmax): 2 h | Cmax [1, 16]: 1440 ± 454 ng/mL | AUC(0-t) [1, 16]: 16900 ± 3120 ng·h/mL | half-life ([1]; 80 mg, 80 mg Tablet, Steady-State (Day 28), mean ± SD, read-out: t1/2 (terminal phase half-life) (converted)): 1160 ± 201 min | Tmax ([1]; 80 mg, 80 mg Tablet, Steady-State (Day 28), median (min, max), read-out: Tmax): 3 h | Tmax ([1]; first dose, tablets 20 to 80 mg, read-out: median Tmax): 2 to 6 h | half-life ([1]; tablet (as of April 2021), read-out: terminal half-life at steady state): 1440 to 1680 min | half-life at 28 days ([1]; tablets, steady-state, read-out: mean t1/2): 1140 to 1680 min | exposure (AUC0-24) of 20-mg tablet higher than 20 mg PIB ([1]; steady-state Day 28): approximately 50% | accumulation in exposure (Cmax and AUC0-24) at steady-state ([1]; tablets, after 28 days of daily dosing): < 2 fold | mean apparent CL/F ([1]; tablets, steady-state): approximately 5 L/hr | EC50 (CYP2C8; human, fresh primary human hepatocytes, mRNA induction, read-out: half-maximal effective concentration (EC50)): 2010 nM | maximal induction effect (Emax) (CYP2C8; mRNA, 0.1-100 μM): 7 fold
